Activity calls are given as the source filed them. No rule for the calls is given here.
Tested on: S1PR3 cell line viability, luminescence counterscreen
Experiment: cell viability loss, dose response – luminescence, cytotoxicity control for S1PR3 antagonist project, late-stage follow-up (AID 743436)

| SMILES | CC50 |
| --- | --- |
| O=C(NC(c1ccc(Br)cc1)c1nc(-c2ccccc2)no1)c1ccc(Cl)c(Cl)c1 (stereo unspecified) | > 28.2 µM (inactive) |
| O=C(NC(c1cccc(Cl)c1)c1nc(-c2ccccc2)no1)c1cccc(Cl)c1 (stereo unspecified) | > 28.2 µM (inactive) |
| O=C(NC(c1ccccc1)c1nc(-c2ccccc2)no1)c1cccc(Br)c1 (stereo unspecified) | > 28.2 µM (inactive) |
| O=C(NC(c1ccc(Cl)cc1)c1nc(-c2ccccc2)no1)c1cccc(Cl)c1 (stereo unspecified) | > 28.2 µM (inactive) |
| CCc1ccc(C(NC(=O)c2cccc(Cl)c2)c2nc(-c3ccccc3)no2)cc1 (stereo unspecified) | > 28.2 µM (inactive) |
| O=C(NC(c1ccccc1)c1nc(-c2ccccc2)no1)c1ccc(Cl)c(Cl)c1 (stereo unspecified) | > 28.2 µM (inactive) |
| O=C(c1cccc(Cl)c1)N(CCO)C(c1ccc(Cl)c(Cl)c1)c1nc(-c2ccccc2)no1 (stereo unspecified) | > 28.2 µM (inactive) |
| Clc1ccc(CNC(c2ccccc2)c2nc(-c3ccccc3)no2)cc1Cl (stereo unspecified) | > 28.2 µM (inactive) |
| COc1ccc(C(=O)NC(c2ccccc2)c2nc(-c3ccccc3)no2)cc1 (stereo unspecified) | > 28.2 µM (inactive) |
| O=C(Cc1ccc(Cl)c(Cl)c1)NC(c1ccccc1)c1nc(-c2ccccc2)no1 (stereo unspecified) | > 28.2 µM (inactive) |
| O=C(NC(c1ccc(Cl)cc1)c1nc(-c2ccccc2)no1)c1ccc(Cl)c(Cl)c1 (stereo unspecified) | > 28.2 µM (inactive) |
| O=C(NC(c1ccc(Cl)c(Cl)c1)c1nc(-c2ccccc2)no1)c1ccc(Cl)cc1 (stereo unspecified) | > 28.2 µM (inactive) |
| O=C(NC(c1ccc(Cl)cc1)c1nc(-c2ccccc2)no1)c1ccc(Cl)c(Br)c1 (stereo unspecified) | > 28.2 µM (inactive) |
| O=C(NC(c1nc(-c2ccccc2)no1)C1CCCCC1)c1ccc(Cl)c(Cl)c1 (stereo unspecified) | > 28.2 µM (inactive) |
| O=C(NC(c1cccc(Cl)c1)c1nc(-c2ccccc2)no1)c1cc(Cl)cc(Cl)c1 (stereo unspecified) | > 28.2 µM (inactive) |
| O=C(NC(c1cccc(Cl)c1)c1nc(-c2ccccc2)no1)c1ccc(Cl)c(Cl)c1 (stereo unspecified) | > 28.2 µM (inactive) |

| SMILES | CC50 |
| --- | --- |
| O=C(Nc1ccc(Cl)c(Cl)c1)NC(c1ccccc1)c1nc(-c2ccccc2)no1 (stereo unspecified) | 7.7 µM |
| O=C(NC(c1ccc(Cl)cc1)c1nc(-c2cccc(Cl)c2)no1)c1cccc(Cl)c1 (stereo unspecified) | > 28.2 µM (inactive) |
| Cc1ccc(C(NC(=O)c2cccc(Cl)c2)c2nc(-c3ccccc3)no2)cc1 (stereo unspecified) | > 28.2 µM (inactive) |
| O=C(NC(c1ccc(Cl)cc1)c1nc(-c2ccccn2)no1)c1cccc(Cl)c1 (stereo unspecified) | > 28.2 µM (inactive) |
| O=C(NC(c1ccc(Cl)cc1)c1nc(-c2ccccc2)no1)c1cccc(Br)c1 (stereo unspecified) | > 28.2 µM (inactive) |
| O=C(NC(c1ccccc1)c1nc(-c2ccccc2)no1)c1ccc(Cl)cc1 (stereo unspecified) | > 28.2 µM (inactive) |
| O=C(NC(c1ccccc1)c1nc(-c2ccccc2)no1)c1cccc(Cl)c1 (stereo unspecified) | > 28.2 µM (inactive) |
| O=C(NC(c1ccc(Cl)c(Cl)c1)c1nc(-c2ccccc2)no1)c1ccc(Cl)c(Cl)c1 (stereo unspecified) | > 28.2 µM (inactive) |
| O=C(NC(Cc1ccccc1)c1nc(-c2ccccc2)no1)c1cccc(Cl)c1 (stereo unspecified) | > 28.2 µM (inactive) |
| N#Cc1ccc(C(=O)NC(c2ccc(Cl)c(Cl)c2)c2nc(-c3ccccc3)no2)cc1 (stereo unspecified) | > 28.2 µM (inactive) |
| O=C(NC(c1ccccc1)c1nc(-c2ccccc2)no1)c1cccc(Cl)n1 (stereo unspecified) | > 28.2 µM (inactive) |
| O=C(NC(c1ccc(Cl)c(Cl)c1)c1nc(-c2ccccc2)no1)c1cccc(Cl)c1 (stereo unspecified) | > 28.2 µM (inactive) |
| Cc1ccc(C(=O)NC(c2ccccc2)c2nc(-c3ccccc3)no2)cc1 (stereo unspecified) | > 28.2 µM (inactive) |
| O=C(NC(c1ccc(Cl)c(Cl)c1)c1nc(-c2ccccc2)no1)c1ccccc1 (stereo unspecified) | 24.7 µM (inactive) |
| O=C(NC(c1nc(-c2ccccc2)no1)C1CCOCC1)c1ccc(Cl)c(Cl)c1 (stereo unspecified) | > 28.2 µM (inactive) |
